Assay results from the NIST ThermoML archive (doi:10.1016/j.jct.2016.08.038).

Legend:
[1] = for electrical conductivity: Frequency=0.001 MHz, Alternating current cell with electrodes; for electrical conductivity / speed of sound / kinematic viscosity / mass density / surface tension liquid-gas: Liquid; for speed of sound: Frequency=3 MHz, Sing-around technique in a fixed-path interferometer; for kinematic viscosity: Capillary tube (Ostwald / Ubbelohde) method; for mass density: Vibrating tube method; for surface tension liquid-gas: Drop volume
[2] = refractive index (Na D-line) (dimensionless); conditions: 101.33 kPa, Standard Abbe refractometry, Liquid
[3] = Molar enthalpy of transition or fusion; conditions: DSC
[4] = molar heat capacity at constant pressure; conditions: 101.33 kPa, Small sample (50 mg) DSC, Liquid

CC[n+]1ccccc1.O=S(=O)([O-])C(F)(F)F [1-ethylpyridinium triflate]
[1]
Conditions	electrical conductivity [S/m]	kinematic viscosity [m2/s]	mass density [kg/m3]	speed of sound [m/s]
293.15 K, 100 kPa	0.407	–	–	1500.4
293.15 K, 101.33 kPa	–	6.89e-05	1409.09	–
295.65 K, 100 kPa	0.456	–	–	1495
295.65 K, 101.33 kPa	–	6.14e-05	1407.09	–
298.15 K, 100 kPa	0.502	–	–	1489.1
298.15 K, 101.33 kPa	–	5.47e-05	1405.03	–
300.65 K, 100 kPa	0.556	–	–	1483.4
300.65 K, 101.33 kPa	–	4.95e-05	1402.96	–
303.15 K, 100 kPa	0.613	–	1400.91	1477.7
303.15 K, 101.33 kPa	–	4.45e-05	1400.9	–
303.15 K, 5000 kPa	–	–	1403.53	–
303.15 K, 10000 kPa	–	–	1406.14	–
303.15 K, 15000 kPa	–	–	1408.69	–
303.15 K, 20000 kPa	–	–	1411.17	–
303.15 K, 25000 kPa	–	–	1413.58	–
303.15 K, 30000 kPa	–	–	1415.93	–
303.15 K, 35000 kPa	–	–	1418.22	–
303.15 K, 40000 kPa	–	–	1420.44	–
305.65 K, 100 kPa	0.676	–	–	1471.9
305.65 K, 101.33 kPa	–	4.02e-05	1398.85	–
308.15 K, 100 kPa	0.744	–	–	1466.3
308.15 K, 101.33 kPa	–	3.63e-05	1396.8	–
310.65 K, 100 kPa	0.808	–	–	1461.1
310.65 K, 101.33 kPa	–	3.3e-05	1394.77	–
313.15 K, 100 kPa	0.872	–	–	1455
313.15 K, 101.33 kPa	–	3.01e-05	1392.77	–
315.65 K, 100 kPa	0.953	–	–	1450
315.65 K, 101.33 kPa	–	2.75e-05	1390.68	–
318.15 K, 100 kPa	1.02	–	–	1444
318.15 K, 101.33 kPa	–	2.52e-05	1388.63	–
320.65 K, 100 kPa	1.13	–	–	1438.2
320.65 K, 101.33 kPa	–	2.31e-05	1386.59	–
323.15 K, 100 kPa	1.21	–	–	1433.2
323.15 K, 101.33 kPa	–	2.13e-05	1384.6	–
325.65 K, 100 kPa	1.3	–	–	1427.4
325.65 K, 101.33 kPa	–	1.96e-05	1382.5	–
328.15 K, 100 kPa	1.39	–	–	1421.9
328.15 K, 101.33 kPa	–	1.82e-05	1380.47	–
330.65 K, 100 kPa	1.47	–	–	1416.1
330.65 K, 101.33 kPa	–	1.69e-05	1378.45	–
333.15 K, 100 kPa	1.59	–	–	1410.6
333.15 K, 101.33 kPa	–	1.57e-05	1376.42	–
335.65 K, 100 kPa	1.68	–	–	1405.1
335.65 K, 101.33 kPa	–	1.46e-05	1374.41	–
338.15 K, 100 kPa	1.78	–	–	1399.7
338.15 K, 101.33 kPa	–	1.36e-05	1372.35	–

Conditions	Molar enthalpy of transition or fusion [kcal/mol]	Normal melting temperature [°C]	Triple point temperature [K]	molar heat capacity at constant pressure [J/K/mol]	refractive index	surface tension liquid-gas [mN/m]
[1], 293.15 K	–	–	–	–	–	42.48
[1], 295.65 K	–	–	–	–	–	42.36
[1], 298.15 K	–	–	–	–	–	42.26
[1], 300.65 K	–	–	–	–	–	42.15
[1], 303.15 K	–	–	–	–	–	42.08
[1], 305.65 K	–	–	–	–	–	42.02
[1], 308.15 K	–	–	–	–	–	41.93
[1], 310.65 K	–	–	–	–	–	41.83
[1], 313.15 K	–	–	–	–	–	41.71
[1], 315.65 K	–	–	–	–	–	41.65
[1], 318.15 K	–	–	–	–	–	41.55
[1], 320.65 K	–	–	–	–	–	41.43
[1], 323.15 K	–	–	–	–	–	41.31
[1], 325.65 K	–	–	–	–	–	41.22
[1], 328.15 K	–	–	–	–	–	41.16
[1], 330.65 K	–	–	–	–	–	41.07
[1], 333.15 K	–	–	–	–	–	40.95
[1], 335.65 K	–	–	–	–	–	40.88
[1], 338.15 K	–	–	–	–	–	40.76
[1], Crystal 1, DTA	–	16	–	–	–	–
[1], Crystal 2, DSC	–	–	260.4	–	–	–
[2], 293.15 K	–	–	–	–	1.46039	–
[2], 295.65 K	–	–	–	–	1.45969	–
[2], 298.15 K	–	–	–	–	1.45898	–
[2], 300.65 K	–	–	–	–	1.4583	–
[2], 303.15 K	–	–	–	–	1.45759	–
[2], 305.65 K	–	–	–	–	1.45689	–
[2], 308.15 K	–	–	–	–	1.45619	–
[2], 310.65 K	–	–	–	–	1.4555	–
[2], 313.15 K	–	–	–	–	1.45484	–
[2], 315.65 K	–	–	–	–	1.45415	–
[2], 318.15 K	–	–	–	–	1.45345	–
[2], 320.65 K	–	–	–	–	1.45276	–
[2], 323.15 K	–	–	–	–	1.45206	–
[2], 325.65 K	–	–	–	–	1.45134	–
[2], 328.15 K	–	–	–	–	1.45064	–
[2], 330.65 K	–	–	–	–	1.44995	–
[2], 333.15 K	–	–	–	–	1.44927	–
[2], 335.65 K	–	–	–	–	1.44859	–
[2], 338.15 K	–	–	–	–	1.44789	–
[3], Crystal 1	2.75	–	–	–	–	–
[3], Crystal 2	0.167	–	–	–	–	–
[4], 293.15 K	–	–	–	348.4	–	–
[4], 295.65 K	–	–	–	350.2	–	–
[4], 298.15 K	–	–	–	351.8	–	–
[4], 300.65 K	–	–	–	353.6	–	–
[4], 303.15 K	–	–	–	355.3	–	–
[4], 305.65 K	–	–	–	357.1	–	–
[4], 308.15 K	–	–	–	358.7	–	–
[4], 310.65 K	–	–	–	360.5	–	–
[4], 313.15 K	–	–	–	362.1	–	–
[4], 315.65 K	–	–	–	363.8	–	–
[4], 318.15 K	–	–	–	365.4	–	–
[4], 320.65 K	–	–	–	367	–	–
[4], 323.15 K	–	–	–	368.7	–	–
[4], 325.65 K	–	–	–	370.3	–	–
[4], 328.15 K	–	–	–	371.8	–	–
[4], 330.65 K	–	–	–	373.5	–	–
[4], 333.15 K	–	–	–	375.2	–	–
[4], 335.65 K	–	–	–	376.9	–	–
[4], 338.15 K	–	–	–	378.6	–	–
